Here are results for twelve compounds from patent US10450347B2, “Immunomodulators” (BRISTOL-MYERS SQUIBB COMPANY, priority 2015, dated 2019).

Starred links: 1 amine or outer side, 2 acyl side, 3 side chain; linkers in the order of their positions; H or OH if unused. Positions of bridges follow the written chain, without caps; N, C: chain ends. Non-standard residues stand in square brackets, D forms with d. Residues, ends and D or L forms follow the SMILES beside them. ξ: configuration not given here. Tyrψ(CN4)Ala = C[C@@H](C(=O)[*:2])n1nnnc1[C@H](Cc1ccc(O)cc1)N[*:1]; X1 = CCCC[C@@H](C(=O)[*:2])n1nnnc1[C@H](Cc1c[nH]c2ccccc12)N[*:1]; Morpholine(3S-CO) = O=C(O)[C@@H]1COCCN1; Bta = N[C@@H](Cc1csc2ccccc12)C(=O)O; Hyp = O=C(O)[C@@H]1C[C@@H](O)CN1; NMeNle = CCCC[C@H](NC)C(=O)O; Orn = NCCC[C@H](N)C(=O)O; Dap = NC[C@H](N)C(=O)O; ξC = NC(CS)C(=O)O; Sar = CNCC(=O)O

In one data set the target is T1, PD-1-Ig/PD-L1-His (Homo sapiens, UniProt Q9NZQ7).
T1 construct: [hPD-L1(19-239)-tobacco vein mottling virus protease cleavage site (TVMV)-His]; made in house; host or cells: HEK293T cells
T1 sequence (Q9NZQ7 with tags, fused parts or gaps): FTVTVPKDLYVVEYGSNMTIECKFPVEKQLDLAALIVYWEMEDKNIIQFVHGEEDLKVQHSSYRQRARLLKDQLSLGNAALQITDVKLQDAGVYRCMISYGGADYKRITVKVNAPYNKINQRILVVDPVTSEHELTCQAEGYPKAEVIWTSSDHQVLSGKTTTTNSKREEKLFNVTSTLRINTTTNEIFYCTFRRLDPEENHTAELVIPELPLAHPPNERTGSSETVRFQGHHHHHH
Kind of data set: PD-1/PD-L1 Homogenous Time-Resolved Fluorescence (HTRF) binding assay. The settings on record: inhibition of PD-1-Ig binding to PD-L1-TVMV-His; numeric values. From the text: The ability of the macrocyclic peptides of the present disclosure to bind to PD-L1 was investigated using a PD-1/PD-L1 Homogenous Time-Resolved Fluorescence (HTRF) binding assay.
Homogenous Time-Resolved Fluorescence (HTRF) Assays of Binding of Soluble PD-1 to Soluble PD-L1. Soluble PD-1 and soluble PD-L1 refers to proteins with carboxyl-end truncations that remove the transmembrane-spanning regions and are fused to heterologous sequences, specifically the Fc portion of the human immunoglobuling G sequence (Ig) or the hexahistidine epitope tag (SEQ ID NO: 3) (His). All binding studies were performed in an HTRF assay buffer consisting of dPBS supplemented with 0.1% (w/v) bovine serum albumin and 0.05% (v/v) Tween-20. For the PD-1-Ig/PD-L1-His binding assay, inhibitors were pre-incubated with PD-L1-His (10 nM final) for 15 m in 4 μl of assay buffer, followed by addition of PD-1-Ig (20 nM final) in 1 μl of assay buffer and further incubation for 15 m. PD-L1 fusion proteins from either human, cynomologous macaques, mouse, or other species were used. HTRF detection was achieved using europium crypate-labeled anti-Ig monoclonal antibody (1 nM final) and allophycocyanin (APC) labeled anti-His monoclonal antibody (20 nM final). Antibodies were diluted in HTRF detection buffer and 5 μl was dispensed on top of binding reaction. The reaction was allowed to equilibrate for 30 minutes and signal (665 nm/620 nm ratio) was obtained using an EnVision fluorometer. Additional binding assays were established between PD-1-Ig/PD-L2-His (20 and 5 nM, respectively), CD80-His/PD-L1-Ig (100 and 10 nM, respectively) and CD80-His/CTLA4-Ig (10 and 5 nM, respectively). Binding/competition studies between biotinylated Compound No. 71 and human PD-L1-His were performed as follows. Macrocyclic peptide inhibitors were pre-incubated with PD-L1-His (10 nM final) for 60 minutes in 4 μl of assay buffer followed by addition of biotinylated Compound No. 71 (0.5 nM final) in 1 μl of assay buffer. Binding was allowed to equilibrate for 30 minutes followed by addition of europium crypated labeled Streptavidin (2.5 pM final) and APC-labeled anti-His (20 nM final) in 5 μl of HTRF buffer. The reaction was allowed to equilibrate for 30 m and signal (665 nm/620 nm ratio) was obtained using an EnVision fluorometer.
Recombinant Proteins. Carboxyl-truncated human PD-1 (amino acids 25-167) with a C-terminal human Ig epitope tag [hPD-1 (25-167)-3S-IG] and human PD-L1 (amino acids 18-239) with a C-terminal His epitope tag [hPD-L1(19-239)-tobacco vein mottling virus protease cleavage site (TVMV)-His] were expressed in HEK293T cells and purified sequentially by recombinant Protein A affinity chromatography and size exclusion chromatography. Human PD-L2-His (Sino Biologicals), CD80-His (Sino Biologicals), CTLA4-Ig (RnD Systems) were all obtained through commercial sources.
Compound `CCCC[C@H]1C(=O)N(C)[C@@H](CCCC)C(=O)N[C@@H](CCCNC(=N)N)C(=O)N[C@H](C(=O)NCC(N)=O)CSCC(=O)N[C@@H](Cc2ccc(O)cc2)c2nnnn2[C@@H](C)C(=O)N[C@@H](CC(N)=O)C(=O)N2CCC[C@H]2C(=O)N[C@@H](Cc2cnc[nH]2)C(=O)N[C@@H](CC(C)C)C(=O)N(C)CC(=O)N[C@@H](Cc2c[nH]c3ccccc23)C(=O)N[C@@H](CO)C(=O)N[C@@H](Cc2c[nH]c3ccccc23)C(=O)N1C` [Example 1012] ({CH2CO}-[Tyrψ(CN4)Ala]NPHL[Sar]WSW[NMeNle][NMeNle]RCG-NH2; thioether N-13) came in with an IC50 of 30 nM.

The compound `CCCC[C@H]1C(=O)N(C)[C@@H](CCCC)C(=O)N[C@@H](CCCNC(=N)N)C(=O)N[C@H](C(=O)NCC(N)=O)CSCC(=O)N[C@@H](Cc2ccccc2)c2nnnn2[C@@H](C)C(=O)N[C@@H](CC(N)=O)C(=O)N2CCC[C@H]2C(=O)N[C@@H](Cc2cnc[nH]2)C(=O)N[C@@H](CC(C)C)C(=O)N(C)CC(=O)N[C@@H](Cc2c[nH]c3ccccc23)C(=O)N[C@@H](CO)C(=O)N[C@@H](Cc2c[nH]c3ccccc23)C(=O)N1C` (single isomer, unassigned) [Example 1002] showed an IC50 of 200 nM. `CCCC[C@H]1C(=O)N[C@@H](CN)C(=O)N[C@H](C(=O)NCC(N)=O)CSCC(=O)N[C@@H](Cc2ccc(O)cc2)C(=O)N[C@H](C)C(=O)N[C@@H](CC(=O)O)C(=O)N2CCC[C@H]2C(=O)N[C@@H](Cc2cnc[nH]2)C(=O)N[C@@H](CCC(N)=O)C(=O)N2C[C@H](O)C[C@H]2C(=O)N[C@@H](Cc2c[nH]c3ccccc23)C(=O)N[C@@H](CO)C(=O)N[C@@H](Cc2cccc3ccccc23)c2nnnn2[C@@H](CCCC)C(=O)N1C` [Example 1111] yielded a 50% inhibitory concentration (IC50) of 2160 nM.

The data set is the same for the next values; noted with them: inhibition of PD-1-Ig binding to PD-L1-TVMV-His; range classes.
On to `CCCC[C@H]1C(=O)N[C@H](CCCNC(=N)N)C(=O)N[C@@H](C(=O)NCC(N)=O)CSCC(=O)N[C@@H](Cc2ccccc2)C(=O)N(C)[C@@H](C)C(=O)N[C@@H](CC(N)=O)C(=O)N2CCC[C@H]2C(=O)N[C@@H](Cc2cnc[nH]2)C(=O)N[C@@H](CC(C)C)C(=O)N(C)CC(=O)N[C@@H](Cc2c[nH]c3ccccc23)C(=O)N[C@@H](CO)C(=O)N[C@@H](Cc2cccc3ccccc23)c2nnnn2[C@@H](CCCC)C(=O)N1C` [Example 1005], for which the IC50 was 100 to 10000 nM.

`CCCC[C@H]1C(=O)N[C@@H](CCCNC(=N)N)C(=O)N[C@H](C(=O)NCC(N)=O)CSCC(=O)N[C@@H](Cc2ccc(O)cc2)C(=O)N(C)[C@@H](C)C(=O)N[C@@H](CC(N)=O)C(=O)N2CCC[C@H]2C(=O)N[C@@H](Cc2cnc[nH]2)C(=O)N[C@@H](CC(C)C)C(=O)N2C[C@H](O)C[C@H]2C(=O)N[C@@H](Cc2c[nH]c3ccccc23)C(=O)N[C@@H](CO)C(=O)N[C@@H](Cc2cccc3ccccc23)c2nnnn2[C@@H](CCCC)C(=O)N1C` [Example 1052]: the concentration for half-maximal inhibition (IC50) was 10 to 99 nM. `CCCC[C@H]1C(=O)N(C)[C@@H](CCCC)C(=O)N[C@@H](C)C(=O)N[C@H](C(=O)NCC(=O)O)CSCC(=O)N[C@@H](Cc2ccc(O)cc2)c2nnnn2[C@@H](C)C(=O)N[C@@H](CC(=O)O)C(=O)N2CCC[C@H]2C(=O)N[C@@H](Cc2c[nH]cn2)C(=O)N[C@@H](CCC(N)=O)C(=O)N2C[C@H](O)C[C@H]2C(=O)N[C@@H](Cc2c[nH]c3ccccc23)C(=O)N[C@@H](CO)C(=O)N[C@@H](Cc2csc3ccccc23)C(=O)N1C` [Example 1110] ({CH2CO}-[Tyrψ(CN4)Ala]DPHQ[Hyp]WS[Bta][NMeNle][NMeNle]ACG-OH; thioether N-13): the IC50 is 100 to 10000 nM. Same read-out and setting: to `CCCC[C@H]1C(=O)N[C@@H](CCC(=O)O)C(=O)N[C@H](C(=O)NCC(N)=O)CSCC(=O)N[C@@H](Cc2ccc(O)cc2)C(=O)N(C)[C@@H](C)C(=O)N[C@@H](CC(=O)O)C(=O)N2CCC[C@H]2C(=O)N[C@@H](Cc2cnc[nH]2)C(=O)N[C@@H](CCC(N)=O)C(=O)N2C[C@H](O)C[C@H]2C(=O)N[C@@H](Cc2c[nH]c3ccccc23)C(=O)N[C@@H](CO)C(=O)N[C@@H](Cc2cccc3ccccc23)c2nnnn2[C@@H](CCCC)C(=O)N1C` [Example 1104] belongs 10 to 99 nM; to `CCCC[C@H]1C(=O)N[C@@H](C)C(=O)N[C@H](C(=O)NCC(N)=O)CSCC(=O)N[C@@H](Cc2ccc(O)cc2)C(=O)N(C)[C@@H](C)C(=O)N[C@@H](CC(=O)O)C(=O)N2CCC[C@H]2C(=O)N[C@@H](Cc2cnc[nH]2)C(=O)N[C@@H](CCC(N)=O)C(=O)N2C[C@H](O)C[C@H]2C(=O)N[C@@H](Cc2c[nH]c3ccccc23)C(=O)N[C@@H](CO)C(=O)N[C@@H](Cc2cccc3ccccc23)c2nnnn2[C@@H](CCCC)C(=O)N1C` [Example 1103], 100 to 10000 nM; to `CCCC[C@H]1C(=O)N[C@@H](C)C(=O)N[C@H](C(=O)NCC(N)=O)CSCC(=O)N[C@@H](Cc2ccc(O)cc2)C(=O)N[C@H](C)C(=O)N[C@@H](CC(=O)O)C(=O)N2CCC[C@H]2C(=O)N[C@@H](Cc2cnc[nH]2)C(=O)N[C@@H](CCC(N)=O)C(=O)N2C[C@H](O)C[C@H]2C(=O)N[C@@H](Cc2c[nH]c3ccccc23)C(=O)N[C@@H](CO)C(=O)N[C@@H](Cc2cccc3ccccc23)c2nnnn2[C@@H](CCCC)C(=O)N1C` [Example 1113], 100 to 10000 nM. Still for that read-out and setting: to `CCCC[C@H]1C(=O)N[C@@H](CCCN)C(=O)NC(C(=O)NCC(N)=O)CSCC(=O)N[C@@H](Cc2ccc(O)cc2)C(=O)N2CCOC[C@H]2C(=O)N[C@@H](CC(N)=O)C(=O)N2CCC[C@H]2C(=O)N[C@@H](CN)C(=O)N[C@@H](CC(C)C)C(=O)N2C[C@H](O)C[C@H]2C(=O)N[C@@H](Cc2c[nH]c3ccccc23)C(=O)N[C@@H](CO)C(=O)N[C@@H](Cc2c[nH]c3ccccc23)c2nnnn2[C@@H](CCCC)C(=O)N1C` (stereo partly drawn) [Example 1054] ({CH2CO}-Y[Morpholine(3S-CO)]NP[Dap]L[Hyp]WS[X1][NMeNle][Orn][ξC]G-NH2; thioether N-13) belongs 100 to 10000 nM; to `CCCC[C@H]1C(=O)NC(CCCNC(=N)N)C(=O)N[C@H](C(=O)NCC(N)=O)CSCC(=O)N[C@@H](Cc2ccc(O)cc2)C(=O)N(C)[C@@H](C)C(=O)N[C@@H](CC(N)=O)C(=O)N2CCC[C@H]2C(=O)N[C@@H](Cc2cnc[nH]2)C(=O)N[C@@H](CC(C)C)C(=O)N2CCC[C@H]2C(=O)N[C@@H](Cc2c[nH]c3ccccc23)C(=O)N[C@@H](CO)C(=O)N[C@@H](Cc2cccc3ccccc23)c2nnnn2[C@@H](CCCC)C(=O)N1C` (stereo partly drawn) [Example 1006], 100 to 10000 nM.

Test system in the next data set: not given
Test: not given
The settings on record: oral administration, extensive first-pass metabolism in the liver; cited from earlier work.
Consider `CCCC1O[C@@H]2C[C@H]3[C@@H]4CCC5=CC(=O)C=C[C@]5(C)[C@H]4[C@@H](O)C[C@]3(C)[C@]2(C(=O)CO)O1` (stereo partly drawn) [budesonide], for which the bioavailability result was “about 10%”.

As usually defined, the IC50 is the concentration that inhibits the measured activity by half.
